4 compounds from publication PMC8550792, “Evolution of kinase polypharmacology across HSP90 drug discovery” (Cell Chemical Biology, 2021) can be followed below.

What all share (assay): biochemical
Common to all, as to format: biochemical

The target in experiment [1] is T1, 382 unique human kinases (Homo sapiens, UniProt Q14164).
T1 construct: purchased Reaction Biology (HotSpot contract assay)
T1 sequence (Q14164 1-716): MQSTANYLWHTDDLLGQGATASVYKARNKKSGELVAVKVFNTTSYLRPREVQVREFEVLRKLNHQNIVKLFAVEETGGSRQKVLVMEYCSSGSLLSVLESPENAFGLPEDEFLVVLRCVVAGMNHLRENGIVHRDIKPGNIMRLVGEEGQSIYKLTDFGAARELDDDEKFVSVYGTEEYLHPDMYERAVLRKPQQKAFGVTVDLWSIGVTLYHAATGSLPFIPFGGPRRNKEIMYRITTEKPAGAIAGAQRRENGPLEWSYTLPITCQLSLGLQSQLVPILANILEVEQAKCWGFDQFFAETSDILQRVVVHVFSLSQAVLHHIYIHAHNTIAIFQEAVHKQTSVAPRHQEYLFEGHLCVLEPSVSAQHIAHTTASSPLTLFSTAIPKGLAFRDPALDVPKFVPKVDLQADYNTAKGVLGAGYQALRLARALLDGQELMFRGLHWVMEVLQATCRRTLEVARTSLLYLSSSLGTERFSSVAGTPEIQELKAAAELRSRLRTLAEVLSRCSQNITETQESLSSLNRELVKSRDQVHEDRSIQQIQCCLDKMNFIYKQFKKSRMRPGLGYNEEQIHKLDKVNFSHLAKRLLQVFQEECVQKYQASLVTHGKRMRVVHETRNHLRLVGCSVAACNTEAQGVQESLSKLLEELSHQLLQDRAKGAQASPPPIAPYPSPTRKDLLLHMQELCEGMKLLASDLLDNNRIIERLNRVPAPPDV
The settings on record: kinase IKKe/IKBKE, compound 10 uM; for remaining activity at 10 µM: read-out: % Enzyme Activity (relative to DMSO controls).

The target of experiment [2] is T2, 382 unique human kinases (Homo sapiens, UniProt P49760).
T2 construct: purchased Reaction Biology (HotSpot contract assay)
T2 sequence (P49760 whole entry): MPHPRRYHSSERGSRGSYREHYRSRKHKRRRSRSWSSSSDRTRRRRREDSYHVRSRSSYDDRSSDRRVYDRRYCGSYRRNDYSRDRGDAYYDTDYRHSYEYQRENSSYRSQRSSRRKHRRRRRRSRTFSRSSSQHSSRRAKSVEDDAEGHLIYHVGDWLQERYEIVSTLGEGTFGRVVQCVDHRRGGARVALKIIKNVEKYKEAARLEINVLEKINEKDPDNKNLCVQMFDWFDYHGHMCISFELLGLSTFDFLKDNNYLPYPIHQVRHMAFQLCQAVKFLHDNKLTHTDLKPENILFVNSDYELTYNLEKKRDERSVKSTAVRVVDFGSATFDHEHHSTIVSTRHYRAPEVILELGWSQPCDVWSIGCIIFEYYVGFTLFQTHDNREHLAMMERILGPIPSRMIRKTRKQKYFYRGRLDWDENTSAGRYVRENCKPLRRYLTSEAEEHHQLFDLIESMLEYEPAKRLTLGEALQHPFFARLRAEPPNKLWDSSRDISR
Conditions: CLK2, 10 uM; for remaining activity at 10 µM: read-out: % Enzyme Activity (relative to DMSO controls).

Experiment [3] deals with T3, 382 unique human kinases (Homo sapiens, UniProt Q9Y2H1).
T3 construct: purchased Reaction Biology (HotSpot contract assay)
T3 sequence (Q9Y2H1 whole entry): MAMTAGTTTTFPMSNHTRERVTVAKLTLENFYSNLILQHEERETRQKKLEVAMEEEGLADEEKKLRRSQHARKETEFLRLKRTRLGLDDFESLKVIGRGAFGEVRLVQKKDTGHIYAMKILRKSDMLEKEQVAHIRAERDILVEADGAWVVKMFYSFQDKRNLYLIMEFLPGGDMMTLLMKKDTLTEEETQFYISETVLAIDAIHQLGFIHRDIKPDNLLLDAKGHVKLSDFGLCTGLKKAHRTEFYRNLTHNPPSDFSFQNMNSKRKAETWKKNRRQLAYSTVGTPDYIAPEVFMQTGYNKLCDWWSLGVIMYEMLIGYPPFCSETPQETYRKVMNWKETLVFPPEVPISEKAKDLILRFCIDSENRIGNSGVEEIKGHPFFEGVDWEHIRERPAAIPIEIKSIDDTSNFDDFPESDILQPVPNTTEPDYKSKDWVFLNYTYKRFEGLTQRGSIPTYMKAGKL
The settings on record: STK38L/NDR2, compound at 10 uM, duplicate values; for remaining activity at 10 µM: read-out: % Enzyme Activity (relative to DMSO controls).

Experiment [4] concerns the target T4, 382 unique human kinases (Homo sapiens, UniProt P42680).
T4 construct: purchased Reaction Biology (HotSpot contract assay)
T4 sequence (P42680 1-631): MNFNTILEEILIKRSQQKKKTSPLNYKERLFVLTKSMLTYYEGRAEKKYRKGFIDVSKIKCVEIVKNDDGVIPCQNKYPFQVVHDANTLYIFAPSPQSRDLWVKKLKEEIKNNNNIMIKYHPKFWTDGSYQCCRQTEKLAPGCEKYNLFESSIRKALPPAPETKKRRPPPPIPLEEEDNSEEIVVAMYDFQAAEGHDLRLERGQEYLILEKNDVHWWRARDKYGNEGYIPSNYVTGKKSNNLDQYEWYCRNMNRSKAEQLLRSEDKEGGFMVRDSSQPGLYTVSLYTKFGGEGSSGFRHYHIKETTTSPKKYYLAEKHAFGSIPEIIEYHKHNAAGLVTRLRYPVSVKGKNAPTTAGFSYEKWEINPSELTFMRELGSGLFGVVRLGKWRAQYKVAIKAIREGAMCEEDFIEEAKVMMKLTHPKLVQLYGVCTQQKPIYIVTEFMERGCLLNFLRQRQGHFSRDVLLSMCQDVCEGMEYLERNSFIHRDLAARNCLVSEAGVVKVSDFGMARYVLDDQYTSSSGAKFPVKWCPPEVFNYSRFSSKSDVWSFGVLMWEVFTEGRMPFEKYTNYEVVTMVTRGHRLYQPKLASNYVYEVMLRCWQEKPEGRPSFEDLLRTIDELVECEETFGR
Conditions: TEC, 10 uM; for remaining activity at 10 µM: read-out: % Enzyme Activity (relative to DMSO controls).

The target of experiment [5] is T5, 382 unique human kinases (Homo sapiens, UniProt Q15835).
T5 construct: purchased Reaction Biology (HotSpot contract assay)
T5 sequence (Q15835 1-563): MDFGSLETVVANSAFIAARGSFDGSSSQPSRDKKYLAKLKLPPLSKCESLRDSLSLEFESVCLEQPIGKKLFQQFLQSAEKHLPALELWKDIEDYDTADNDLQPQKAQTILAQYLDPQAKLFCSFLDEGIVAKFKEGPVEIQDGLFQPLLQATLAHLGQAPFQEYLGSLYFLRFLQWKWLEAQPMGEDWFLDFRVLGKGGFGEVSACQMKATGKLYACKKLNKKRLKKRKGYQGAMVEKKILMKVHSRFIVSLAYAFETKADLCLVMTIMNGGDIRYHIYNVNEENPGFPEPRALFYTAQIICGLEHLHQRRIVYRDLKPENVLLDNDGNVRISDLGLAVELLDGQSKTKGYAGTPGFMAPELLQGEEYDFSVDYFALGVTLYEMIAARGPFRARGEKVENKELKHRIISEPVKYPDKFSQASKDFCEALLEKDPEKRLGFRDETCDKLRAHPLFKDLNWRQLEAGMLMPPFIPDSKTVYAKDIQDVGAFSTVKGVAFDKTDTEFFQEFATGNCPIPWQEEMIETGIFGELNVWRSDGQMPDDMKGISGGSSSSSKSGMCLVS
The settings on record: GRK1, 10 uM; for remaining activity at 10 µM: read-out: % Enzyme Activity (relative to DMSO controls).

In experiment [6] the target is T6, 382 unique human kinases (Homo sapiens, UniProt P35916).
T6 construct: purchased Reaction Biology (HotSpot contract assay)
The settings on record: FLT4/VEGFR3, [ATP] 5 µM, compound 10 uM; for remaining activity at 10 µM: read-out: % Enzyme Activity (relative to DMSO controls).

The target of experiment [7] is T7, 382 unique human kinases (Homo sapiens, UniProt Q04912).
T7 construct: purchased Reaction Biology (HotSpot contract assay)
T7 sequence (Q04912 25-1400): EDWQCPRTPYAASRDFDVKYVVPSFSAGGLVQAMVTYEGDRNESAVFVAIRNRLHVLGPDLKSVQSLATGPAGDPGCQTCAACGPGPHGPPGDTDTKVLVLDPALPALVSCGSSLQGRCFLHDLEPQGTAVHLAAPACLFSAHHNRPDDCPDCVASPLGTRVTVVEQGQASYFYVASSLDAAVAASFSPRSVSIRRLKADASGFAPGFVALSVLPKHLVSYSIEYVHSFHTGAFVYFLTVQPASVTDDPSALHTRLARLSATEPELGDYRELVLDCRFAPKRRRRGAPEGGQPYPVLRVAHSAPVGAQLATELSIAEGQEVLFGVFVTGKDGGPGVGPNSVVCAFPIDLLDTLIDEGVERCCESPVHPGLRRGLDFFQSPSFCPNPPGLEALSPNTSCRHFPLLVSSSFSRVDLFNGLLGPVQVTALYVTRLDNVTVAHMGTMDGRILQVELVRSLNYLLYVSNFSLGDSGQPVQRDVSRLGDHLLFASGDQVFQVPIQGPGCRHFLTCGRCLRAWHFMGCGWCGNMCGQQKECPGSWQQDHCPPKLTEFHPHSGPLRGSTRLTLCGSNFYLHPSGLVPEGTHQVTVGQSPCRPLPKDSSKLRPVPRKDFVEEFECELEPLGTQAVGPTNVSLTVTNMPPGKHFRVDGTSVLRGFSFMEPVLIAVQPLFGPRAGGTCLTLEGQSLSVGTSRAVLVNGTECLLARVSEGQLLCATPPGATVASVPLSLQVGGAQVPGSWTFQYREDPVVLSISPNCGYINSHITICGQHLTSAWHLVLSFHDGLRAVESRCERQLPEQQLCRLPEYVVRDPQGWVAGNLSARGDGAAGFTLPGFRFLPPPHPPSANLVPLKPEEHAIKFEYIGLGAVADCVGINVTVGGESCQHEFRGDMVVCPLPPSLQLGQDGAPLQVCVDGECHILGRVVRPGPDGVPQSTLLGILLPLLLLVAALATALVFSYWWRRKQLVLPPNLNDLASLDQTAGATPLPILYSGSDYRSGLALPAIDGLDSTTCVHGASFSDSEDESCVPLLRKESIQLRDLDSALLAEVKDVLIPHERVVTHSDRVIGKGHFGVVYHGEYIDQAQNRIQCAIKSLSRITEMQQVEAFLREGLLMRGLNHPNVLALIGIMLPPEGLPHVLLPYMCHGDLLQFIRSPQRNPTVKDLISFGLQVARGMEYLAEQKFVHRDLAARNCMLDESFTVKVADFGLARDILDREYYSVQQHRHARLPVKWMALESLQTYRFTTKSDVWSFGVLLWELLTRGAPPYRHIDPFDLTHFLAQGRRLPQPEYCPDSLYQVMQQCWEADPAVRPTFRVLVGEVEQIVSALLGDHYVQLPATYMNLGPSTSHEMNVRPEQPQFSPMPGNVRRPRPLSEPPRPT
The settings on record: RON/MST1R, 10 uM; for remaining activity at 10 µM: read-out: % Enzyme Activity (relative to DMSO controls).

The target in experiment [8] is T8, 382 unique human kinases (Homo sapiens, UniProt Q9BYP7).
T8 construct: purchased Reaction Biology (HotSpot contract assay)
Conditions: WNK3, 10 uM; for remaining activity at 10 µM: read-out: % Enzyme Activity (relative to DMSO controls).

Experiment [9] deals with T9, 382 unique human kinases (Homo sapiens, UniProt Q14012).
T9 construct: purchased Reaction Biology (HotSpot contract assay)
T9 sequence (Q14012 whole entry): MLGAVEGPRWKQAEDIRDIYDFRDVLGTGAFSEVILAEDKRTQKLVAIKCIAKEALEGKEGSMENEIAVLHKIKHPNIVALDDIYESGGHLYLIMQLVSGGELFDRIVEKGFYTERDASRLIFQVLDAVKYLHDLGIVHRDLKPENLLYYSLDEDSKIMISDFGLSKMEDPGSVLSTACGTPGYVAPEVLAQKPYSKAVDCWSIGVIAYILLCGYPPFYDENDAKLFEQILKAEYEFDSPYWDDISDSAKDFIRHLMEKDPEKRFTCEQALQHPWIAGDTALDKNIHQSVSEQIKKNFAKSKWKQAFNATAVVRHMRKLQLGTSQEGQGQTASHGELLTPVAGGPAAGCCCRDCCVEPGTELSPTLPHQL
Conditions: CAMK1a, 10 uM; for remaining activity at 10 µM: read-out: % Enzyme Activity (relative to DMSO controls).

Experiment [10] concerns the target T10, 382 unique human kinases (Homo sapiens, UniProt P16234, T674I).
T10 construct: purchased Reaction Biology (HotSpot contract assay)
The settings on record: PDGFRa (T674I), [ATP] 20 µM, compound 10 uM; for remaining activity at 10 µM: read-out: % Enzyme Activity (relative to DMSO controls).

Experiment [11] concerns the target T11, 382 unique human kinases (Homo sapiens, UniProt P07949, G691S).
T11 construct: purchased Reaction Biology (HotSpot contract assay)
The settings on record: RET (G691S), 10 uM; for remaining activity at 10 µM: read-out: % Enzyme Activity (relative to DMSO controls).

T10 sequence (P16234 24-1089 T674I): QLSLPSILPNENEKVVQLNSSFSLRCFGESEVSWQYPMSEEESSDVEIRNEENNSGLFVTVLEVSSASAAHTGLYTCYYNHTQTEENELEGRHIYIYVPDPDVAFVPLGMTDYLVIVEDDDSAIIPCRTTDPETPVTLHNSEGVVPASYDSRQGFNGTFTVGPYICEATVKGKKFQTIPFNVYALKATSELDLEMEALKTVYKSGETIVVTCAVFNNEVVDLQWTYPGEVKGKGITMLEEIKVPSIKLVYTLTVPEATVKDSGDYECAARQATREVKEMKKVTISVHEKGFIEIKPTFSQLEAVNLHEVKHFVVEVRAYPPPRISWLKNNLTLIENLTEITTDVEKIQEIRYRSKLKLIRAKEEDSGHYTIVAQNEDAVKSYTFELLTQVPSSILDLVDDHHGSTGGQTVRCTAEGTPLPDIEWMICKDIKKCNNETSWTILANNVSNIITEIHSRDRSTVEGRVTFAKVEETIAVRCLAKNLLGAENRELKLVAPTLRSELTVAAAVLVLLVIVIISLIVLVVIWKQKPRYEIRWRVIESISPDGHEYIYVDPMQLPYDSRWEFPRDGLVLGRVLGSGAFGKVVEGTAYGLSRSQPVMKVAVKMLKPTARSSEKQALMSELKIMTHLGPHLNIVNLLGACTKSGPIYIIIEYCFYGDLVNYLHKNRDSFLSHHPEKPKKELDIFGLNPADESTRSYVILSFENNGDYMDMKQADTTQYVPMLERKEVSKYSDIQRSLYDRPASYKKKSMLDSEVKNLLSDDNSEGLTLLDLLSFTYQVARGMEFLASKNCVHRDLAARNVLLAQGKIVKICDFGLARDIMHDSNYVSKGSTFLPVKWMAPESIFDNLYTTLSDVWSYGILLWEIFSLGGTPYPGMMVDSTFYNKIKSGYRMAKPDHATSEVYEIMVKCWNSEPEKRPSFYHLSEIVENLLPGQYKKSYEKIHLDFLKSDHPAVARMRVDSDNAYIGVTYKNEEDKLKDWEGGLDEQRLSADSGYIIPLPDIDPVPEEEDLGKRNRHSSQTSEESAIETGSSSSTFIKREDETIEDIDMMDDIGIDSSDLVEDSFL
T11 sequence (P07949 29-1114 G691S): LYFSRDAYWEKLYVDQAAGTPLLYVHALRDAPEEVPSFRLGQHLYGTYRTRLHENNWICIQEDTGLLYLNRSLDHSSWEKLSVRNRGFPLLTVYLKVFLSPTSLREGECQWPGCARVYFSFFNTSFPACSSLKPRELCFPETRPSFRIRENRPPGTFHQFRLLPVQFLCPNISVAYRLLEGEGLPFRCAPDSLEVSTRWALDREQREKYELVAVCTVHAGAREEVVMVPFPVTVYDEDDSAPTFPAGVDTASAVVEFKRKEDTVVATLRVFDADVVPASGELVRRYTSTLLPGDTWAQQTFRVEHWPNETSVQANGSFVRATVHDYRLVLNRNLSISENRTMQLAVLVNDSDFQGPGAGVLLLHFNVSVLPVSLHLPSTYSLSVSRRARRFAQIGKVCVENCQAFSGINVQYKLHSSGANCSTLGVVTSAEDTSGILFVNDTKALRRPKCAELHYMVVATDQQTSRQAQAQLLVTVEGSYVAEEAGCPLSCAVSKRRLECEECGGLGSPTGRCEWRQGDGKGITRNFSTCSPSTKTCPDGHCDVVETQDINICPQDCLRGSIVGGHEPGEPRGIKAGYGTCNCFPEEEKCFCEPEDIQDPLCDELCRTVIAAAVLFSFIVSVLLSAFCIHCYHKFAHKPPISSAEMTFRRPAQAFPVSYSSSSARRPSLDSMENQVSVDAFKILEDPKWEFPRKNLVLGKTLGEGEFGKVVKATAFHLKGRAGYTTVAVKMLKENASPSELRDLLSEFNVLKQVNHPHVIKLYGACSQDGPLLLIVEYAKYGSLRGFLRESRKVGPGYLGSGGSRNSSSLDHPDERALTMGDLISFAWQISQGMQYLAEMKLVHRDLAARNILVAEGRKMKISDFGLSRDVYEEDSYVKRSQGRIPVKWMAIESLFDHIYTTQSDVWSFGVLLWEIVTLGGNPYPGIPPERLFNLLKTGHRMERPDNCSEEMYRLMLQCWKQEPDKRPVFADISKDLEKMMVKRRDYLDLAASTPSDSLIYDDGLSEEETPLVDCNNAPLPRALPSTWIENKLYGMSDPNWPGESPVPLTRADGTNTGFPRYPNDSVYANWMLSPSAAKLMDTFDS

For `CC(C)c1cc(-c2n[nH]c(=O)n2-c2ccc3c(ccn3C)c2)c(O)cc1O` [Ganetespib (STA9090)], the remaining activity at 10 µM at 382 unique human kinases [1] was determined as 95.7%; at 382 unique human kinases [2], 67.1%; on 382 unique human kinases [3], 105%; at 382 unique human kinases [4], 59.7%; on 382 unique human kinases [5] it was 76%.

With `CC(C)c1cc(-c2n[nH]c(=O)n2-c2ccc3c(ccn3C)c2)c(O)cc1O` [Ganetespib], the remaining activity at 10 µM on 382 unique human kinases [6] was determined as 47.4%; at 382 unique human kinases [7] it was 106%; on 382 unique human kinases [8], 98.1%; at 382 unique human kinases [9], 91.4%; on 382 unique human kinases [10], 33.8%; on 382 unique human kinases [11], 98.6%.

For the compound `CCNC(=O)c1noc(-c2cc(C(C)C)c(O)cc2O)c1-c1ccc(CN2CCOCC2)cc1` [Luminespib (AUY-922)], the “% Enzyme Activity (relative to DMSO controls)” value on 382 unique human kinases [1] is 104.37%; at 382 unique human kinases [2], 80.06%; at 382 unique human kinases [3], 105.09%; at 382 unique human kinases [4], 96.94%; on 382 unique human kinases [5], 85.44%. The remaining activity at 10 µM at 382 unique human kinases [1] turned out to be 109%; at 382 unique human kinases [2] it was 80.2%; at 382 unique human kinases [3], 108%; at 382 unique human kinases [4] it was 97.9%; on 382 unique human kinases [5] it was 85.9%.

Take `CCNC(=O)c1noc(-c2cc(C(C)C)c(O)cc2O)c1-c1ccc(CN2CCOCC2)cc1` [Luminespib]: the “% Enzyme Activity (relative to DMSO controls)” value at 382 unique human kinases [6] worked out at 95.96%; at 382 unique human kinases [7], 94.46%; at 382 unique human kinases [8], 110.27%; at 382 unique human kinases [9] it was 103.58%; on 382 unique human kinases [10], 89.59%; at 382 unique human kinases [11], 100.12%. Besides, the remaining activity at 10 µM at 382 unique human kinases [6] came to 96%; at 382 unique human kinases [7], 100%; on 382 unique human kinases [8], 112%; at 382 unique human kinases [9] it was 109%; at 382 unique human kinases [10], 91.6%; at 382 unique human kinases [11], 101%.
